Results from US11629155B2, “Small molecule antagonist compound TAC5 series having toll-like receptor 3/7/8/9 inhibitory function” (AJOU UNIVERSITY INDUSTRY-ACADEMIC COOPERATION FOUNDATION, priority 2018, dated 2023).
Entries after “also recorded” stand apart in the source; their conditions may differ.

Experiments:
TLR4 = target: T1, TLR4 (Homo sapiens, UniProt O00206+Q9Y6Y9); assay: LPS-induced TNF-α secretion (ELISA) in THP1-derived macrophages; type: cell-based; conditions: 1 to 50 μM, FIG. 4D
T1 construct: endogenous in cells; host or cells: THP1-derived macrophages (PMA-differentiated)
T1 sequence (O00206 24-839): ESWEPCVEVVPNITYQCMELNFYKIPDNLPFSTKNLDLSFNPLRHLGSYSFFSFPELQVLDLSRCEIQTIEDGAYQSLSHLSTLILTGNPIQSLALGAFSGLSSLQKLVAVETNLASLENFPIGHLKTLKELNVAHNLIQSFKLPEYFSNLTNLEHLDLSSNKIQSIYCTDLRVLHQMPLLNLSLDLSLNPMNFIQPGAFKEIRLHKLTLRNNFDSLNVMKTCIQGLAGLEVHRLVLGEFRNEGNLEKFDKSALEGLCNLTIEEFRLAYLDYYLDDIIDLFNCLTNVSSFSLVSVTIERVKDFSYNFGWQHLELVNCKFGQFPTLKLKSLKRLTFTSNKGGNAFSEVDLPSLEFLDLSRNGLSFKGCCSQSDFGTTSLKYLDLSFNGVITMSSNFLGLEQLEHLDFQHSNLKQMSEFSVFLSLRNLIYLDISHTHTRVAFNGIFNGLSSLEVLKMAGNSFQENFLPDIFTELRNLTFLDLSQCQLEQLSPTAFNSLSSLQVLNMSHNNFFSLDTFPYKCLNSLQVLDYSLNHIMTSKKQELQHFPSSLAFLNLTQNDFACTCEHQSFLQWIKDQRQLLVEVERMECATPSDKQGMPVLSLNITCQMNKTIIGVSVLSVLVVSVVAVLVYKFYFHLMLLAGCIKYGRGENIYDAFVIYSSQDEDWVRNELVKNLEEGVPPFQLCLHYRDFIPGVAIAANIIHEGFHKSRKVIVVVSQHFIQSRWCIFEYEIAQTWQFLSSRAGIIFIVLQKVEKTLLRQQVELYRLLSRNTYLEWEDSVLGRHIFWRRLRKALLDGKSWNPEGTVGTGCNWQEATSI
T1 sequence (Q9Y6Y9 17-160 limits assumed): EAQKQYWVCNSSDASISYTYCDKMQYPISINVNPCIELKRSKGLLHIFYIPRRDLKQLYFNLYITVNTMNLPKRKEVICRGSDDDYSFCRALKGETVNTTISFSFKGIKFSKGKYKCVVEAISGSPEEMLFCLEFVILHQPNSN

TLR2/6 = target: T2, TLR2/6 (Homo sapiens, UniProt O60603+Q9Y2C9); assay: FSL-1-induced TNF-α secretion (ELISA) in THP1-derived macrophages; type: cell-based; conditions: 1 to 50 μM, FIG. 4D
T2 construct: endogenous in cells; host or cells: THP1-derived macrophages (PMA-differentiated)
T2 sequence (O60603 21-784): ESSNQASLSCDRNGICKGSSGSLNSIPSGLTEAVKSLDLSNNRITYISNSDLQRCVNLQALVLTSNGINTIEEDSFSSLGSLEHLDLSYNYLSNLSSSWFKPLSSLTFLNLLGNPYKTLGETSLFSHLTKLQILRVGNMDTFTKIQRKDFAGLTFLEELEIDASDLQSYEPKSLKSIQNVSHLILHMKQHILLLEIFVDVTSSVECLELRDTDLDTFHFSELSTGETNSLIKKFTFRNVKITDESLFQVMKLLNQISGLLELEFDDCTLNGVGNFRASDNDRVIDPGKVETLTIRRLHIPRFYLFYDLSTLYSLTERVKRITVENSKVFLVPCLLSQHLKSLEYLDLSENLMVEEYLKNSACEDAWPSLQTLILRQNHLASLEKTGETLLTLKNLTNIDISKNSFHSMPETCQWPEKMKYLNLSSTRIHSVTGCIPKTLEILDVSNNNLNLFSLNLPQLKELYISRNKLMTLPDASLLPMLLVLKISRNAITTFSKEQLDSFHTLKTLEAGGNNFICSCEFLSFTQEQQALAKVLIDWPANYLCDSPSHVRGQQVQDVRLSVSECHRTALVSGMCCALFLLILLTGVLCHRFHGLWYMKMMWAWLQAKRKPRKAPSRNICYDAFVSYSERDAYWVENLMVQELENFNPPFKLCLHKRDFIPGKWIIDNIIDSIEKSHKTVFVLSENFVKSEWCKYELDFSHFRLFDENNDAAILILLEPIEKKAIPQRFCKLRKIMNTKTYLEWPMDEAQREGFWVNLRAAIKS
T2 sequence (Q9Y2C9 32-796): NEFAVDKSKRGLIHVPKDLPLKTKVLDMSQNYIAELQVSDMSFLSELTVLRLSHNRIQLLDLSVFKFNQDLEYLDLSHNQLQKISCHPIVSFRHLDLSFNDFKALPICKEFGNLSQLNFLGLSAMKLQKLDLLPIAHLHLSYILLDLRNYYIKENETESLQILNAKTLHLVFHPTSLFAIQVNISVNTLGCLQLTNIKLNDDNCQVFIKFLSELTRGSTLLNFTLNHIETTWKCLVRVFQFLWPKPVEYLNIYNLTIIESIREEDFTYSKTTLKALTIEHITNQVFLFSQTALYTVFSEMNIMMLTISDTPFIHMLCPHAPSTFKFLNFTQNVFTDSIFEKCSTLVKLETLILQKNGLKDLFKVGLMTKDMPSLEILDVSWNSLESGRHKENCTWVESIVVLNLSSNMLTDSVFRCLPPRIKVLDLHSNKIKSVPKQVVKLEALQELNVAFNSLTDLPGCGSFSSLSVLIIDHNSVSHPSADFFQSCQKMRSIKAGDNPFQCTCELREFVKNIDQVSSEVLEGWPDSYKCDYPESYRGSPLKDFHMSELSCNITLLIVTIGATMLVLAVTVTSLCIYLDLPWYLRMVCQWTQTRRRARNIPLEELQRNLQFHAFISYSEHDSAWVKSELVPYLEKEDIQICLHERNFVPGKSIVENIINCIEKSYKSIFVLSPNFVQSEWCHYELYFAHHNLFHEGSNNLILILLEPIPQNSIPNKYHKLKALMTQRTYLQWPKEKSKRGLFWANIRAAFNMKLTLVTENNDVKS

TLR8 = target: T3, TLR8 (Homo sapiens, UniProt Q9NR97); assay: TL8, R848 or CL075-induced TNF-α or IL-6 secretion in THP1-derived macrophages; type: cell-based; conditions: TL8, R848 or CL075, dose-dependent manner, FIGS. 4E-4G
T3 construct: endogenous in cells; host or cells: THP1-derived macrophages (PMA-differentiated)
T3 sequence (Q9NR97 27-1041): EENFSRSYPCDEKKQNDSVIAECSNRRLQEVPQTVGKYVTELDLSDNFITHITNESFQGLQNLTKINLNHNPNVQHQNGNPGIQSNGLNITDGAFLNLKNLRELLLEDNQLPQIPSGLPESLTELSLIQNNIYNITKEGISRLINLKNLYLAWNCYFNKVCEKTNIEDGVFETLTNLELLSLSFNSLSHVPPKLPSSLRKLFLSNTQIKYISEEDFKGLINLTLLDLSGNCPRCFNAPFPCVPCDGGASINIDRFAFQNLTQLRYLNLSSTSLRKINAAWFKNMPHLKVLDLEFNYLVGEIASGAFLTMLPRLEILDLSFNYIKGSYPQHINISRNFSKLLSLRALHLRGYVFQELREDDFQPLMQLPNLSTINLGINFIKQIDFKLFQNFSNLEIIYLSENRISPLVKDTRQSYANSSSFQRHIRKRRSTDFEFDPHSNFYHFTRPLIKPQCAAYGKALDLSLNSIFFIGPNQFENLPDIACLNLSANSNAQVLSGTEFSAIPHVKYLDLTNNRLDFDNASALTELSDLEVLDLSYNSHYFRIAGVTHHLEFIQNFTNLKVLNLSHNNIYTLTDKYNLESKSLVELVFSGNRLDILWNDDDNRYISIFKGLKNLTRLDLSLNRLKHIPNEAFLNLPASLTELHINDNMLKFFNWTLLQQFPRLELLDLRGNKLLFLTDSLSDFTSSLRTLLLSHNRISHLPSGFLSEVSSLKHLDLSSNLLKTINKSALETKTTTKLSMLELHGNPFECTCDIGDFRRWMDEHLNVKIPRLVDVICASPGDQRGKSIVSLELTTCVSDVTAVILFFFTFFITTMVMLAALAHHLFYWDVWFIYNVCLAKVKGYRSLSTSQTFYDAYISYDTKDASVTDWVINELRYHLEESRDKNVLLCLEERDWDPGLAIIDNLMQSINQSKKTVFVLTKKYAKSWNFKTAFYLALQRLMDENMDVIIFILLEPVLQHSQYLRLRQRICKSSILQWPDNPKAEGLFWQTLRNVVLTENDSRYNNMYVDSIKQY

MARC/lpr mice = assay: SLE mouse model (MARC/lpr mice); type: in vivo
Description: QRT-PCR analysis was performed to detect the expression levels of specific genes in lymph nodes, spleen and kidney. Total RNA was isolated from lymph nodes, spleen and kidneys of 16-week-old mice using TRI reagent (Sigma-Aldrich, Co.). RNA was applied to qRT-PCR based on SYBR green (Enzo Life Sciences, Inc., Farmingdale, N.Y., USA). The following primers for the marker gene were used: mTLR7, 5′-ATGTGGACACGGAAGAGACAA-3′(SEQ ID NO: 1) and 5′-GGT AAG GGT AAG ATT GGT G-3′(SEQ ID NO: 2); mTLR9, 5′-ATGGTTCTCCGTCGAAGGACT-3′ (SEQ ID NO: 3) and 5′-GAG GCT TCA GCT CAC AGG G-3′(SEQ ID NO: 4); mIL-6, 5′-GAGGATACCACTCCCAACAGACC-3′(SEQ ID NO: 5) and 5′-AAGTGCATCATCGTTGTTCATACA-3′(SEQ ID NO: 6); mMyd88, 5′-CACCTGTGTCTGGTCCATTG-3′(SEQ ID NO: 7) and 5′-CTGTTGGACACCTGGAGACA-3′(SEQ ID NO: 8); mIL-17, 5′-GCT CCA GAA GGC CCT CAG A-3′ (SEQ ID NO: 9) and 5′-AGC TTT CCC TCC GCA TTG A-3′(SEQ ID NO: 10); mGAPDH, 5′-CTCAACACGGGAAACCTCAC-3′ (SEQ ID NO: 11) and 5′-CGCTCCACCAACTAAGAACG-3′(SEQ ID NO: 12) (Bioneer, Daejeon, Korea). Quantified individual RNA expression levels were normalized to GAPDH and expressed as RNA expression levels relative to the corresponding wild-type mice.
The therapeutic potential of TAC5-a on systemic autoimmunity was further determined by intraperitoneally injecting 10 nmol/g (daily dosage) of TAC5-a (dissolved in 1% dimethylsulfoxide [DMSO]) into MARC/lpr mice for 11 days. This inhibitor clearly influenced mouse lymphatic proliferation. […] The production of anti-dsDNA autoantibodies was kept low (FIG. 6B), and serum antinuclear antibodies (ANAs) were reduced by treatment with inhibitors (FIG. 6C). The detection of certain proteins, such as albumin, in the urine serves as a marker for a kidney pathology called glomerulonephritis (GN), which is caused by inflammation of the glomerulus. […] Then, the effect of TAC5-a on the relative expression behaviors of specific genes in lymph nodes, spleen and kidneys at the transcription level was confirmed.

Nc1cccc(COc2cccnc2N)c1 [TAC5-a, 3-((3-aminobenzyl)oxy)pyridin-2-amine]
TLR4 (LPS)-mediated TNF-α secretion (TLR4): did not block | TLR2/6 (FSL-1)-mediated TNF-α secretion (TLR2/6): did not block | TLR8-mediated TNF-α or IL-6 secretion (TLR8): significantly inhibited | production of anti-dsDNA autoantibodies (MARC/lpr mice; 10 nmol/g daily i.p. for 11 days, FIG. 6B): kept low | serum antinuclear antibodies (ANAs) (MARC/lpr mice; 10 nmol/g daily i.p. for 11 days, FIG. 6C): reduced | content of urine albumin (MARC/lpr mice; 10 nmol/g daily i.p. for 11 days, FIG. 6D): significantly reduced | lymph node swelling, appearance evaluation or size decrease (MARC/lpr mice; 10 nmol/g daily intraperitoneally for 11 days, FIG. 6A): clearly observed; also recorded: significantly prevented | IL-6 mRNA level in lymph nodes (qRT-PCR) (MARC/lpr mice; FIGS. 6E to 6G): significantly reduced | IL-17 mRNA level in lymph nodes (qRT-PCR) (MARC/lpr mice; FIGS. 6E to 6G): significantly reduced | TLR7 mRNA level in lymph nodes (qRT-PCR) (MARC/lpr mice; FIGS. 6E to 6G): significantly reduced
